In patent US20160057994A1, “Aplatelet Clays for Sustained Release of Active Ingredients” (BioGuard Research and Development, Inc., priority 2013, published 2016):

Experiments:
[1] = Accelerated flow-device release test of extruded/spun fibers; type: physicochemical; settings: trifluralin/nanoclay/polypropylene fiber material, water with 0.01% Tween 20, ca. 23° C.
Description: For extrusion and spinning of fibers, the trifluralin-loaded nanoclay is prepared from batches containing 3500 grams of trifluralin and 5476 grams of the nanoclay by the method described in Example 1. The particle size requirement is that the sample pass through a #60 U.S. Sieve (<250 microns). The loading of the trifuralin/nanoclay/polypropylene fiber material in a polyester matrix that is adjusted to provide between 4 and 8% TFN (w/w) for the first fiber run, and 3% TFN (w/w) for the second test run. Pelletized PP material is used for the extrusion and spinning of fibers.
These samples are placed in a flow device that exposed the sample to water that contains 0.01% Tween 20. It is operated at room temperature (ca. 23° C.). These conditions are used as an accelerated test in which 24 hours represents 2 or 3 years of exposure in the environment. This correlation is based on the slope of Arrenhius plots over a temperature range of 10° C. to 50° C. similar systems. During the first few hours, the release rate is high, usually over 100 μg/cm^2/day. The test is continued until the release rate reaches the steady state.

[2] = Accelerated flow-device release test of injection molded sheets; type: physicochemical
Description: Injection molded samples (Table 3) were prepared using a Model 45 MINI-JECTOR (Mini-Jector Machinery Corp., Newbury, Ohio). The mold to be used produces test sheets that were 7.5×5 cm and 1 mm thick. The polyethylene used was powdered Quantum Microthene (XU594, 35 mesh). The polymer was mixed with the aplatelet clay or aplatelet nanoclay to provide a final ratio of 2 parts trifluralin to 20 parts polymer (24 gm load for each injection). For the PE, the injector is set up to melt the mixture at 127° C., with the injection nozzle heated to 138° C. Polypropylene is melted and injected at 163° C.
These sheets were washed in 90% MeOH to remove surface TFN contamination and placed into a flow device that exposes the sample to water that contains 0.01% Tween 20 and 0.5% MeOH. The system is operated at room temperature (ca. 23° C.). These conditions are used as an accelerated test in which 24 hours represents 2-3 years of exposure in the environment. During the first few hours, the release rate is high, usually over 100 μg/cm^2/day.

CCCN(CCC)c1c([N+](=O)[O-])cc(C(F)(F)F)cc1[N+](=O)[O-] [trifluralin, Trifluralin]
release rate during the first few hours [1]: over 100 μg/cm^2/day
release rate during the first few hours ([2]; injection molded polymer sheets with trifluralin-loaded aplatelet clay or nanoclay, water with 0.01% Tween 20 and 0.5% MeOH, ca. 23° C., first few hours): over 100 μg/cm^2/day
rate of trifluralin release from polypropylene relative to standard polyethylene ([2]; polypropylene matrix versus standard polyethylene): ≥ 2%
